Like-named read-outs stand apart in the source and are kept apart here.
Molecular target: T1, MAN2C1 (Homo sapiens, UniProt Q9NTJ4)
T1 construct: expressed in transfected cells
T1 sequence (Q9NTJ4 1-1040): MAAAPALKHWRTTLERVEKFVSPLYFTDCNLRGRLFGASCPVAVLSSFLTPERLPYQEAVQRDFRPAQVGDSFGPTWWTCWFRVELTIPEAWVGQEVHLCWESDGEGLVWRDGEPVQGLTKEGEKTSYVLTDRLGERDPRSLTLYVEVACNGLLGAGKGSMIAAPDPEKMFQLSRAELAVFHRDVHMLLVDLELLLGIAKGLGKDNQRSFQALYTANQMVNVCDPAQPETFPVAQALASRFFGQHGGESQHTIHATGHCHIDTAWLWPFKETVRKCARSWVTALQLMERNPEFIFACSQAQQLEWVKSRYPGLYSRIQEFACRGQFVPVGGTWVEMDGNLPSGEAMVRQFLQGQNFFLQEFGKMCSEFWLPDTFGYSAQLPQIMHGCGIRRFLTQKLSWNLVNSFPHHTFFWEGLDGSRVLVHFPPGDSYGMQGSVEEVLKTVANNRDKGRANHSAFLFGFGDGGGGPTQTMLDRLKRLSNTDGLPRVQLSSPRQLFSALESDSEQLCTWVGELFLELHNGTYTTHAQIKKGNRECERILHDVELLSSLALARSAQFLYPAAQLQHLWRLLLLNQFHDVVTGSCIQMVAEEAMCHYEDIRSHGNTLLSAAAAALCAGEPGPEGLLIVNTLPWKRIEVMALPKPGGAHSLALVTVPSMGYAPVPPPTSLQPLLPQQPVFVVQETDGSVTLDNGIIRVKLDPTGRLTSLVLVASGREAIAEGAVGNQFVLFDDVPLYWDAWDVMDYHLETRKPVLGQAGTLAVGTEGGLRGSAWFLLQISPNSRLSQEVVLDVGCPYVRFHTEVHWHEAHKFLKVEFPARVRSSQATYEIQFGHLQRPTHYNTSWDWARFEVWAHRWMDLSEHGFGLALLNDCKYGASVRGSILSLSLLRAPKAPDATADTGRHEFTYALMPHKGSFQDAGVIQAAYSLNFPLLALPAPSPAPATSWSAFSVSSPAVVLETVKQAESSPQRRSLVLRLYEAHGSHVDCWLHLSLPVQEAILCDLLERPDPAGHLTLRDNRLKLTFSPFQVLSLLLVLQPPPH
Test: 4-MU-α-man activity assay in overexpressed cell lysates
Assay type: biochemical
Description: Finally, selectivity versus a panel of related exo-mannosidases was investigated. We first tested inhibition against all five human GH38 retaining α-mannosidases in overexpressed cell lysates using 4-methylumbelliferyl-α-mannoside (4-MU-α-man): Golgi mannosidase II and IIx (MAN2A1 and MAN2A2), cytosolic MAN2C1 and lysosomal MAN2B1 and MAN2B2. This α-mannosidase family follows a different conformational itinerary than GH47: ^0S2 → B2,5 → ^1S5.[35] […] Of note, the presence of cobalt has been associated with conformational changes in the active site of some GH38 α-mannosidases, which might affect the binding interaction with inhibitors.[36] Nevertheless, additional research is required to explore which specific metal ion is present in the MAN2C1 active site in its in vivo state.
Trans-Cyclosulfamidate Cyclitols Males et al.
2.3 GH38 α-mannosidases and GH2 β-mannosidase inhibition studies
All chemicals were of analytical grade and purchased from Sigma-Aldrich unless stated otherwise.
Optimal stability of cell homogenates and enzyme working stocks was ensured by preparation and temporary storage on ice. Cell homogenates were prepared and used on the same day. Protein concentrations were quantified using the Pierce BCA Protein Assay Kit (ThermoFisher). Protein samples were measured in clear flat-bottom polystyrene 96 well microplates (Greiner Bio-One) using a EMax Plus Microplate Reader (Molecular Devices). Activity measurements of human GH38 α-mannosidases and bacterial β-mannosidase BtMan2A were performed in black flat-bottom polystyrene 96 wells microplates (Greiner Bio-One) and total fluorescence was measured using a Perkin Elmer LS-55 fluorescence spectrometer at wavelengths λex = 366 and λem = 445 nm, with the signal optimized for medium gain readings. The fluorescence values of each enzyme sample were corrected for the background signal of a blank sample containing no enzyme. In the case of IC50 determinations, values were normalized against a control sample containing enzyme without added inhibitor. For a single experiment, three separate curves were fitted from a technical triplicate by setting the inhibitor concentration in µM against the normalized response using GraphPad Prism 8.4.2 software. The Prism functions ‘[inhibitor] versus normalized response’ and ‘[inhibitor] versus normalized response -- variable slope’ were compared for each curve using the Akaike’s Information Criterion method to select the preferred model. Reported IC50 values are mean ± standard deviation from a biological […]
General cell culture protocol
HEK293T cells were grown to confluency at 37 °C under a 5% CO2 atmosphere in Dulbecco’s Modified Eagle’s Medium (DMEM) with a high glucose concentration (Capricorn Scientific, DMEM-HPXA) that was supplemented with 10% fetal calf serum, 0.1% (w/v) penicillin/streptomycin and 1% (v/v) Glutamax. Cells were passaged twice a week to new round polystyrene (PS) tissue culture dishes (Sarstedt) by detachment off the former culture plates by careful pipetting. To prepare cell pellets for activity measurements, plates were grown to confluency and harvested in phosphate buffered saline (PBS). After centrifugation at 1500 rpm for 5 min, the remaining PBS was aspirated and the cells were resuspended in fresh PBS. The concentration of the resulting suspension was then counted using a TC20 automated cell counter (BioRad). Aliquots were centrifuged at 2000 rpm for 5 min and the resulting cell pellets were stored at -80 °C until further use.
4-MU activity assay protocol for human GH38 α-mannosidases
HEK293T cells stably overexpressing human GH38 α-mannosidases MAN2A1, MAN2A2, MAN2B1, MAN2B2 and MAN2C1 were prepared as previously described[11] and were kindly donated by Dr. C. L.
Kuo. Homogenates were prepared by sonicating cell pellets (Sonics VibraCell, 5x1 s with 30 s interval at 20% amplitude) in 150 mM McIlvain buffer of pH 5.5 (MAN2A1, MAN2A2), pH 4.5 (MAN2B1, MAN2B2) or pH 6.7 (MAN2C1) containing either 2 mM ZnCl2 (MAN2A1, MAN2A2, MAN2B1, MAN2B2) […]

O=S1(=O)N[C@@H]2[C@@H](O)[C@@H](O)[C@H](O)[C@@H](CO)[C@H]2O1 [compound 6, 1,6-trans-manno-cyclosulfamidate]
IC50 (Co2+ (cobalt as the metal ion), read-out: IC50 (apparent)): 3.5 ± 1.2 µM | IC50 (Zn2+ (buffer supplemented with 1 mM ZnCl2 instead of CoCl2)): no IC50 value could be determined | IC50 (Zn2+ (buffer supplemented with 1 mM ZnCl2 instead of CoCl2), read-out: IC50): > 1000 µM
